# In paper PMC4628873 (Bioorganic & medicinal chemistry letters, 2015):
# Legend:
# α1A adrenergic receptor [1] = molecular target: T1, α1A adrenergic receptor (Homo sapiens, UniProt P35348); assay: FLIPR calcium mobilization functional assay, α1A adrenergic receptor
# T1 sequence (P35348 1-466): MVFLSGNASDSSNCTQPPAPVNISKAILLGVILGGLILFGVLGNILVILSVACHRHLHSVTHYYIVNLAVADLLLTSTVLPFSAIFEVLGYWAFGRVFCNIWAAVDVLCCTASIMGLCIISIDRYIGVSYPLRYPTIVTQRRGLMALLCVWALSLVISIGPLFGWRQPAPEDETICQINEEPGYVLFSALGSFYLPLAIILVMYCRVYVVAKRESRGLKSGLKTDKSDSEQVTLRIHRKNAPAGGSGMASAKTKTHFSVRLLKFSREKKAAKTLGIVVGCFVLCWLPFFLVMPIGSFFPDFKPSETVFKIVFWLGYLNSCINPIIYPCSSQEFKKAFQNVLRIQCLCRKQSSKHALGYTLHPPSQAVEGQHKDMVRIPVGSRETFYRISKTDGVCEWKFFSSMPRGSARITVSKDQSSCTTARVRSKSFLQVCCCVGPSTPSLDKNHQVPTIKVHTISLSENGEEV
# α1A adrenergic receptor [2] = molecular target: T1, α1A adrenergic receptor; settings: prior SAR studies; cited from earlier work
# 5-HT2A receptor [3] = molecular target: T2, 5-HT2A receptor (Homo sapiens, UniProt P28223); assay: FLIPR calcium mobilization functional assay, human 5-HT2A receptor; settings: for Selectivity α1A/5-HT2A: ratio of Ke α1A / Ke 5-HT2A
# 5-HT2A receptor [4] = molecular target: T2, 5-HT2A receptor; assay: PDSP screening
# α1B = α1B (Homo sapiens, UniProt P35368); assay: PDSP screening; settings: no affinity
# sigma-2 = sigma-2 (Rattus norvegicus, UniProt Q5U3Y7); assay: PDSP screening
# D2 = D2 (Homo sapiens, UniProt P14416); assay: PDSP screening; settings: no affinity
# β1 = β1 (Homo sapiens, UniProt P08588); assay: PDSP screening; settings: no affinity
# D4 = D4 (Homo sapiens, UniProt P21917); assay: PDSP screening; settings: no affinity
# α1A = α1A (Homo sapiens, UniProt P35348); assay: PDSP screening; settings: no affinity
# NET = NET (Homo sapiens, UniProt P23975); assay: PDSP screening; settings: no affinity
# H4 = H4 (Homo sapiens, UniProt Q9H3N8); assay: PDSP screening; settings: no affinity
# M3 = M3 (Homo sapiens, UniProt P20309); assay: PDSP screening; settings: no affinity
# β3 = β3 (Homo sapiens, UniProt P13945); assay: PDSP screening; settings: no affinity
# DAT = DAT (Homo sapiens, UniProt Q01959); assay: PDSP screening
# 5-HT1A = 5-HT1A (Homo sapiens, UniProt P08908); assay: PDSP screening; settings: no affinity
# KOR = KOR (Homo sapiens, UniProt P41145); assay: PDSP screening; settings: no affinity
# M2 = M2 (Homo sapiens, UniProt P08172); assay: PDSP screening; settings: no affinity
# M4 = M4 (Homo sapiens, UniProt P08173); assay: PDSP screening; settings: no affinity
# β2 = β2 (Homo sapiens, UniProt P07550); assay: PDSP screening; settings: no affinity
# D5 = D5 (Homo sapiens, UniProt P21918); assay: PDSP screening; settings: no affinity
# MOR = MOR (Homo sapiens, UniProt P35372); assay: PDSP screening; settings: no affinity
# 5-HT5A = 5-HT5A (Homo sapiens, UniProt P47898); assay: PDSP screening; settings: no affinity
# M1 = M1 (Homo sapiens, UniProt P11229); assay: PDSP screening; settings: no affinity
# PBR = PBR (Rattus norvegicus, UniProt P16257); assay: PDSP screening
# SERT = SERT (Homo sapiens, UniProt P31645); assay: PDSP screening; settings: no affinity
# BZP rat brain site = assay: PDSP screening; settings: no affinity
# 5-HT6 = 5-HT6 (Homo sapiens, UniProt P50406); assay: PDSP screening
# 5-HT2C = 5-HT2C (Homo sapiens, UniProt P28335); assay: PDSP screening
# GABAA = assay: PDSP screening; settings: no affinity
# α2A = α2A (Homo sapiens, UniProt P08913); assay: PDSP screening
# H1 = H1 (Homo sapiens, UniProt P35367); assay: PDSP screening; settings: no affinity
# α1D = α1D (Homo sapiens, UniProt P25100); assay: PDSP screening; settings: no affinity
# DOR = DOR (Homo sapiens, UniProt P41143); assay: PDSP screening; settings: no affinity
# H3 = H3 (Homo sapiens, UniProt Q9Y5N1); assay: PDSP screening; settings: no affinity
# Chain of H3 (Q9Y5N1 whole entry): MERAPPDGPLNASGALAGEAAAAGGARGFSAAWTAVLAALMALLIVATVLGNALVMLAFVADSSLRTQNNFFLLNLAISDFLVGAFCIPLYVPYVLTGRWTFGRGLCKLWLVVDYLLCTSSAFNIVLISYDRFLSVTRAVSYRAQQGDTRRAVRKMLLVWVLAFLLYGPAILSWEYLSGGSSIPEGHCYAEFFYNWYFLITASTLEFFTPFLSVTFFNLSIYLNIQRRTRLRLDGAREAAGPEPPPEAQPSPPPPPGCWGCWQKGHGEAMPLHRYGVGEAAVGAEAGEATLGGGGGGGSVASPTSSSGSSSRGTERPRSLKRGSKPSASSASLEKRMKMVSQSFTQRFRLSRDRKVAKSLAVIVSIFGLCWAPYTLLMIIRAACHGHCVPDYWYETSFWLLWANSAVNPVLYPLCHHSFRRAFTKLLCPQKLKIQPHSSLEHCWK
# T2 sequence (P28223 whole entry): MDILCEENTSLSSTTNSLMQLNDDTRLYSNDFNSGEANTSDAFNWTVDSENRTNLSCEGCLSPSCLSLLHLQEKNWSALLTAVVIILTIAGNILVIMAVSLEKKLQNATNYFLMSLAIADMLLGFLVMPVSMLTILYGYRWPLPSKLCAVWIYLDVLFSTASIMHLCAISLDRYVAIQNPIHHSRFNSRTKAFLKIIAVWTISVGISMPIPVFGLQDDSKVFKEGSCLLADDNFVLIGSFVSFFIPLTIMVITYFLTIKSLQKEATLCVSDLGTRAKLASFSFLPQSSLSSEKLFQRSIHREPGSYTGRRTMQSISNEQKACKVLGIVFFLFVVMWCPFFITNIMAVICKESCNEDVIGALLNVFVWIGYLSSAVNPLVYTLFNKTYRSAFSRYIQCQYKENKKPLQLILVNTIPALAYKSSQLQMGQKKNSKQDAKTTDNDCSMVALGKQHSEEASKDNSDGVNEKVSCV
# Chain of α1D (P25100 whole entry): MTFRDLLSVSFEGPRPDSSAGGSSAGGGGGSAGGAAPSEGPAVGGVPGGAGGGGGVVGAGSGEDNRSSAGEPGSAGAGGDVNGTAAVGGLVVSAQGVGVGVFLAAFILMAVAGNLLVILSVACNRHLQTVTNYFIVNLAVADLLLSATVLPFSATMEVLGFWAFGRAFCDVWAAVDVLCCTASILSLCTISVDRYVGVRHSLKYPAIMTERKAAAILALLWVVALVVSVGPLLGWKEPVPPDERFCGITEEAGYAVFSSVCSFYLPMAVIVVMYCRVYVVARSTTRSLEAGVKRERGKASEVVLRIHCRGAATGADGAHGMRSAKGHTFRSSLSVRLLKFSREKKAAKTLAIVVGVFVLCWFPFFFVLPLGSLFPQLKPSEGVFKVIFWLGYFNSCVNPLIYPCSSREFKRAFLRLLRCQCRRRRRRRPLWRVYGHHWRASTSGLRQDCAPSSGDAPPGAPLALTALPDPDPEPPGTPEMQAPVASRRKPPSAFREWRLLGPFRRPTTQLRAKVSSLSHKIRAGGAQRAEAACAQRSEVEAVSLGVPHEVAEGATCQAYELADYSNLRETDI
# Chain of KOR (P41145 whole entry): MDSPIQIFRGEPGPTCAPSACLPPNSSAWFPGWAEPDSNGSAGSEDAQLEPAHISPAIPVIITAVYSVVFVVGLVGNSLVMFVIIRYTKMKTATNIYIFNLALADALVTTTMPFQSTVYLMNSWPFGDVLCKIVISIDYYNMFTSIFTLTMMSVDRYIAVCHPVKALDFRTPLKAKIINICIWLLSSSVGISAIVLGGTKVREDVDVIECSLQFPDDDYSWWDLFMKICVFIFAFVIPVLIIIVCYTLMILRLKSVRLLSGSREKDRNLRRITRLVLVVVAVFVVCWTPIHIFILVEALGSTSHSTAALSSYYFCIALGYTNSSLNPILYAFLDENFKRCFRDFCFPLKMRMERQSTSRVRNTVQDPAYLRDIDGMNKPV
# Chain of H1 (P35367 whole entry): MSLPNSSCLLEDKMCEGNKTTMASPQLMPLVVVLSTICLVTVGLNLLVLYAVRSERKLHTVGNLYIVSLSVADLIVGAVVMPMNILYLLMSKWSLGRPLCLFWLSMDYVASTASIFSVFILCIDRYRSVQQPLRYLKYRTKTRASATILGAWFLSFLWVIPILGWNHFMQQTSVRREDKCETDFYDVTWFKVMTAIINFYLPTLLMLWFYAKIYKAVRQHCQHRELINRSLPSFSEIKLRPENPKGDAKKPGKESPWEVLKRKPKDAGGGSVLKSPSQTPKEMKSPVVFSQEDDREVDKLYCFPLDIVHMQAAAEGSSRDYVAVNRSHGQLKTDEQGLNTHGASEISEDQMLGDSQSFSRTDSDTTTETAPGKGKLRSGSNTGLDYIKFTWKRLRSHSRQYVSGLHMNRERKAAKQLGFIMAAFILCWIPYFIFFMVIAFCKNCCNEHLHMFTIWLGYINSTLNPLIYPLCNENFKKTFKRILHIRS
# Chain of sigma-2 (Q5U3Y7 whole entry): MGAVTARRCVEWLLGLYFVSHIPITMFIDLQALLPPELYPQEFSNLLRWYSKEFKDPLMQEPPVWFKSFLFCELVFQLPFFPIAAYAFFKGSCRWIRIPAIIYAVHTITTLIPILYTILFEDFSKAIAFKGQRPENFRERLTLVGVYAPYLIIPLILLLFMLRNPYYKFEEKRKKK
# Chain of α2A (P08913 whole entry): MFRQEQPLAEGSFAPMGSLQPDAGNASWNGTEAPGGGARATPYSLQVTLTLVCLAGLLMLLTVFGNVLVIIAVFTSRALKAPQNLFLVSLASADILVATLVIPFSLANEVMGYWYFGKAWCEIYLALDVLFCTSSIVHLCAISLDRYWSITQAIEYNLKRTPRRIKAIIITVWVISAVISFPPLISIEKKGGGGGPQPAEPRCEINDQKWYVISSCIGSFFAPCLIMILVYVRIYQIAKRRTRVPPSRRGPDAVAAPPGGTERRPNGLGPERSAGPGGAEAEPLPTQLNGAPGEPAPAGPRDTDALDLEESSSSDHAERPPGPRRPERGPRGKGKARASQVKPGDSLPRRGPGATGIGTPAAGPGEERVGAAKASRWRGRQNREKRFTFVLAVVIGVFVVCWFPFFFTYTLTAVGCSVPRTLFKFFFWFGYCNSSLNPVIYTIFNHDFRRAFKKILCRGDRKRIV
# Chain of D4 (P21917 whole entry): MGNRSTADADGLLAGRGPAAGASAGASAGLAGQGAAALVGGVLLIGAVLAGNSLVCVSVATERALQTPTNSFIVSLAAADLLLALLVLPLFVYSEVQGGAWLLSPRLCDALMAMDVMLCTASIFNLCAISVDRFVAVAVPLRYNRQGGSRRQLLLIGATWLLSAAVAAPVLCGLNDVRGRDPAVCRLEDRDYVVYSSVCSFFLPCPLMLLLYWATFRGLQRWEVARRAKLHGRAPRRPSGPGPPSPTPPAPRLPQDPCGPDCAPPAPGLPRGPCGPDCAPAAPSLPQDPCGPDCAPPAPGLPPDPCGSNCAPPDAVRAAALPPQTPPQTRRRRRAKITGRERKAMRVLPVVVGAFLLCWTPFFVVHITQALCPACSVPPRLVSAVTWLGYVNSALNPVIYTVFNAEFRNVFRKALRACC
# Chain of α1B (P35368 whole entry): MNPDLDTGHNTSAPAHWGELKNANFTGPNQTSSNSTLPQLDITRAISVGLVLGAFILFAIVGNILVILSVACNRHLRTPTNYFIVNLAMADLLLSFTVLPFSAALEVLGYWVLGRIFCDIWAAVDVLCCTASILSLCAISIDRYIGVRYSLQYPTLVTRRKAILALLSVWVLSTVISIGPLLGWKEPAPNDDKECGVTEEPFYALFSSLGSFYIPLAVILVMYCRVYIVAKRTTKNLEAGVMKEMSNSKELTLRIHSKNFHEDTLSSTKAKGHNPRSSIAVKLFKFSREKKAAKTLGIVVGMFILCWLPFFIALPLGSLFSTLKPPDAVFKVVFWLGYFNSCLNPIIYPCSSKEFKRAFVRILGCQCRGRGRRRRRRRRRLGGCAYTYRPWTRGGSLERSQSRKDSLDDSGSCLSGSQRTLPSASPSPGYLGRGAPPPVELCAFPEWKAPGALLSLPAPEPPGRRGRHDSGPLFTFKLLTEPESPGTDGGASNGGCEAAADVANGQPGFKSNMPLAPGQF
# Chain of 5-HT1A (P08908 whole entry): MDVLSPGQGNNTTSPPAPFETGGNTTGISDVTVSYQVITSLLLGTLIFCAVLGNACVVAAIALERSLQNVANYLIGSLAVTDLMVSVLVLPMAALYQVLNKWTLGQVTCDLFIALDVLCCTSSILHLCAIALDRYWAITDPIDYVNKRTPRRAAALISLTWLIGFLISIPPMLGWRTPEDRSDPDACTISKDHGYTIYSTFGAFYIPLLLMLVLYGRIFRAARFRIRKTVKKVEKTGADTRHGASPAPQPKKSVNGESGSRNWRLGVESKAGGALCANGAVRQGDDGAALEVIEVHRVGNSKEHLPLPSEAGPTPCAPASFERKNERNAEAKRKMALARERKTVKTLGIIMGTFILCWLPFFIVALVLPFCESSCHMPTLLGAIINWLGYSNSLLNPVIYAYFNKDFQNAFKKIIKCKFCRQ
# Chain of 5-HT5A (P47898 whole entry): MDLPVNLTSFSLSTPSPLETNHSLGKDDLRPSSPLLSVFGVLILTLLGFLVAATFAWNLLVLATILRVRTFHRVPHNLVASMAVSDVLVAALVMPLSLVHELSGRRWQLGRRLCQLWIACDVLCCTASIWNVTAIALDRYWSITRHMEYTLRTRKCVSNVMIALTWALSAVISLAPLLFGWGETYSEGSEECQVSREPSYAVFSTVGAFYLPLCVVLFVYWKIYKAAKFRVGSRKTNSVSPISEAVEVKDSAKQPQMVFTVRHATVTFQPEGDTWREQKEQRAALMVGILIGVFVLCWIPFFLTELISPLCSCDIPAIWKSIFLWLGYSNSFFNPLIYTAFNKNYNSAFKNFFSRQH
smiles,measurement,setting,value
"COc1cc2c3c(c1OC)-c1cc4c(cc1CC3N(C)CC2)OCO4 (stereo not drawn) [Compound 4, nantenine, reference compound]",Kb,α1A adrenergic receptor [1],0.036 ± 0.007 µM
C=CCOc1c(OC)cc2c3c1-c1cc4c(cc1CC3N(C)CC2)OCO4 (stereo not drawn) [Compound 5],affinity for the α1A adrenergic receptor,α1A adrenergic receptor [2],devoid of affinity
same,Kb,α1A adrenergic receptor [1],> 10 µM
C/C=C/COc1c(OC)cc2c3c1-c1cc4c(cc1CC3N(C)CC2)OCO4 (stereo not drawn) [Compound 8a],Kb,α1A adrenergic receptor [1],1.98 µM
C=C(C)COc1c(OC)cc2c3c1-c1cc4c(cc1CC3N(C)CC2)OCO4 (stereo not drawn) [Compound 8b],Kb,α1A adrenergic receptor [1],> 10 µM
COc1cc2c3c(c1OCC=C(C)C)-c1cc4c(cc1CC3N(C)CC2)OCO4 (stereo not drawn) [Compound 8c],Kb,α1A adrenergic receptor [1],> 10 µM
COc1cc2c3c(c1OC/C=C/c1ccccc1)-c1cc4c(cc1CC3N(C)CC2)OCO4 (stereo not drawn) [Compound 8e],Kb,5-HT2A receptor [3],> 10 µM
same,Kb,α1A adrenergic receptor [1],> 10 µM
COc1cc2c3c(c1OCC#N)-c1cc4c(cc1CC3N(C)CC2)OCO4 (stereo not drawn) [Compound 8g],Kb,5-HT2A receptor [3],> 10 µM
same,Selectivity α1A/5-HT2A,5-HT2A receptor [3],< 0.07
same,Kb,α1A adrenergic receptor [1],0.711 ± 0.064 µM
COc1cc2c3c(c1OCCOC(C)=O)-c1cc4c(cc1CC3N(C)CC2)OCO4 (stereo not drawn) [Compound 8h],Kb,5-HT2A receptor [3],1.91 µM
same,Kb,α1A adrenergic receptor [1],0.591 ± 0.081 µM
COc1cc2c3c(c1OCc1ccc(Cl)cc1)-c1cc4c(cc1CC3N(C)CC2)OCO4 (stereo not drawn) [Compound 8i],Kb,5-HT2A receptor [3],6.05 µM
same,Selectivity α1A/5-HT2A,5-HT2A receptor [3],> 1.7
same,Kb,α1A adrenergic receptor [1],> 10 µM
COc1cc2c3c(c1OCc1ccc(C(F)(F)F)cc1)-c1cc4c(cc1CC3N(C)CC2)OCO4 (stereo not drawn) [Compound 8j],Kb,5-HT2A receptor [3],2.46 µM
same,Selectivity α1A/5-HT2A,5-HT2A receptor [3],> 4.1
same,Kb,α1A adrenergic receptor [1],> 10 µM
COc1cc2c3c(c1OCc1ccc(Br)cc1)-c1cc4c(cc1CC3N(C)CC2)OCO4 (stereo not drawn) [Compound 8k],Ki,5-HT2A receptor [4],0.185 µM
same,"inhibition in a primary assay, α1B",α1B,less than 50%
same,Ki,sigma-2,0.3 to 0.9 µM
same,"inhibition in a primary assay, D2",D2,less than 50%
same,"inhibition in a primary assay, β1",β1,less than 50%
same,"inhibition in a primary assay, D4",D4,less than 50%
same,"inhibition in a primary assay, α1A",α1A,less than 50%
same,"inhibition in a primary assay, NET",NET,less than 50%
same,"inhibition in a primary assay, H4",H4,less than 50%
same,"inhibition in a primary assay, M3",M3,less than 50%
same,"inhibition in a primary assay, β3",β3,less than 50%
same,Ki,DAT,0.3 to 0.9 µM
same,"inhibition in a primary assay, 5-HT1A",5-HT1A,less than 50%
same,"inhibition in a primary assay, KOR",KOR,less than 50%
same,"inhibition in a primary assay, M2",M2,less than 50%
same,"inhibition in a primary assay, M4",M4,less than 50%
same,"inhibition in a primary assay, β2",β2,less than 50%
same,"inhibition in a primary assay, D5",D5,less than 50%
same,Kb,5-HT2A receptor [3],0.0092 ± 0.0026 µM
same,Selectivity α1A/5-HT2A,5-HT2A receptor [3],">1,086"
same,"inhibition in a primary assay, MOR",MOR,less than 50%
same,"inhibition in a primary assay, 5-HT5A",5-HT5A,less than 50%
same,"inhibition in a primary assay, M1",M1,less than 50%
same,Ki,PBR,> 0.9 µM
same,"inhibition in a primary assay, SERT",SERT,less than 50%
same,"inhibition in a primary assay, BZP rat brain site",BZP rat brain site,less than 50%
same,Ki,5-HT6,0.3 to 0.9 µM
same,Ki,5-HT2C,0.3 to 0.9 µM
same,Kb,α1A adrenergic receptor [1],> 10 µM
same,"inhibition in a primary assay, GABAA",GABAA,less than 50%
same,Ki,α2A,0.3 to 0.9 µM
same,"inhibition in a primary assay, H1",H1,less than 50%
same,"inhibition in a primary assay, α1D",α1D,less than 50%
same,"inhibition in a primary assay, DOR",DOR,less than 50%
same,"inhibition in a primary assay, H3",H3,less than 50%
